Test results as given in ChEMBL document CHEMBL1201862, “PubChem BioAssay data set” (2004).
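Tested at 5 concentrations; 48 h exposure; 96-well plates; endpoints linearly interpolated, else capped at highest concentration. GI50 is the concentration that inhibits growth by half.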 Activity calls are given as the source filed them. No stated cut-off is given here; in the data, active = GI50 up to about 1.1 µM and inactive = higher.

How the values were obtained:
Assay in all cases: NCI anticancer screen, dose series, 48 h
[1] = test system: ACHN
[2] = test system: DU-145
[3] = test system: MCF7
[4] = test system: MDA-MB-231
[5] = test system: NCI-H460
[6] = test system: OVCAR-5
[7] = test system: PC-3
[8] = test system: RPMI-8226
[9] = test system: SF-268
[10] = test system: SK-MEL-2
[11] = test system: SK-MEL-5
[12] = test system: SK-OV-3
[13] = test system: T47D
[14] = test system: U-251
[15] = test system: HL-60
[16] = test system: Hs-578T
[17] = test system: MDA-MB-435
[18] = test system: SW-620
[19] = test system: SNB-75

Measured: GI50

CCOC(=O)[C@]12C(=C(c3ccccc3)O[C@H]3C=CCC[C@H]31)C(=O)C(=O)N2c1ccccc1
inactive: [1] > 100 µM | [2] > 100 µM | [3] > 100 µM | [4] > 100 µM | [5] > 100 µM | [6] > 100 µM | [7] 58.2 µM | [8] 19.8 µM | [9] > 100 µM | [10] > 100 µM | [11] 93.8 µM | [12] > 100 µM | [13] > 100 µM | [14] 13.4 µM

CC(C)CC1C(=O)NCCC(NC(=O)C(Cc2ccc(OC(C)(C)C)cc2)NC(=O)OC(C)(C)C)C(=O)NC(Cc2ccccc2)C(=O)NC(Cc2ccccc2)NC1=O (centres undefined)
inactive: [1] 7.89 µM | [2] 59.4 µM | [15] 8.36 µM | [16] 13.4 µM | [3] 17 µM | [4] 4.9 µM | [17] 2.82 µM | [5] 2.96 µM | [6] 6.25 µM | [7] 14.5 µM | [8] 9.75 µM | [9] 4.51 µM | [11] 31 µM | [12] 22 µM | [18] 2.54 µM | [13] 3.69 µM | [14] 12.8 µM

CN1NC(c2ccccc2)=C(C#N)C(=O)CC1c1ccccc1Cl (centres undefined)
inactive: [1] > 100 µM | [15] > 100 µM | [5] > 100 µM | [6] > 100 µM | [8] > 100 µM | [9] > 100 µM | [10] > 100 µM | [11] 69.8 µM | [12] > 100 µM | [19] 86.3 µM | [18] > 100 µM | [14] > 100 µM

CCOC(=O)C(C)(C)/C=C\C(Cl)=C(Cl)Cl
inactive: [1] > 100 µM | [2] > 100 µM | [15] > 100 µM | [16] > 100 µM | [4] > 100 µM | [17] > 100 µM | [6] > 100 µM | [7] > 100 µM | [8] > 100 µM | [9] > 100 µM | [11] > 100 µM | [12] > 100 µM | [19] > 100 µM | [18] > 100 µM

COc1ccc2c(c1)OC[C@@H]1c3cc4c(cc3O[C@H]21)OCO4
inactive: [1] > 100 µM | [15] > 100 µM | [5] > 100 µM | [6] > 100 µM | [8] > 100 µM | [9] 75 µM | [10] > 100 µM | [11] > 100 µM | [12] > 100 µM | [19] 11.6 µM | [18] > 100 µM | [14] > 100 µM

O=C1OCOC2(CCCC2)C1c1ccccc1 (centres undefined)
inactive: [1] > 100 µM | [2] > 100 µM | [15] > 100 µM | [16] > 100 µM | [4] > 100 µM | [17] > 100 µM | [5] > 100 µM | [6] > 100 µM | [7] > 100 µM | [8] > 100 µM | [9] > 100 µM | [10] > 100 µM | [11] > 100 µM | [12] > 100 µM | [19] > 100 µM | [18] > 100 µM | [13] > 100 µM | [14] > 100 µM

CCOC(=O)C(C)Sc1nnc(COc2ccc(Cl)cc2)n1-c1ccccc1 (centres undefined)
inactive: [1] 17.5 µM | [15] 18.5 µM | [5] 17.7 µM | [6] 26.6 µM | [8] 19.1 µM | [9] 18.3 µM | [10] 13.4 µM | [11] 21.4 µM | [12] 36.1 µM | [19] 30.6 µM | [18] 14.2 µM | [14] 19.5 µM

Cc1nn(-c2ccccc2)c2nc3c(c(C)nn3-c3ccccc3)c(-c3ccc(C(F)(F)F)cc3)c12
inactive: [1] > 100 µM | [2] > 100 µM | [15] > 100 µM | [3] > 100 µM | [4] > 100 µM | [17] > 100 µM | [5] > 100 µM | [6] > 100 µM | [7] > 100 µM | [8] > 100 µM | [9] 44.7 µM | [11] > 100 µM | [12] > 100 µM | [19] 39.4 µM | [18] > 100 µM | [13] > 100 µM | [14] > 100 µM

[O-][n+]1onc2c1-c1nonc1CC2
inactive: [1] 27.1 µM | [2] 51.2 µM | [15] 34.5 µM | [16] 26.7 µM | [3] 28.5 µM | [4] 27 µM | [17] 39.1 µM | [5] 54.2 µM | [6] 50.8 µM | [7] 26.5 µM | [8] > 100 µM | [9] 36.5 µM | [10] 24.1 µM | [11] 27 µM | [12] 47.9 µM | [18] 45.1 µM | [13] 83 µM | [14] 31.9 µM
